System: 628569-122-R-J1-PDC complex spheroid viability
Assay: Anticancer human tumor 628569-122-R-J1-PDC patient-derived head and neck squamous carcinoma cell line growth inhibition [CLK]
Settings: for IC50: curve of first compound; for viability, T/C: stronger effect = lower value
Procedure, shortened: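 Multi-cell-type spheroids combined patient-derived tumor cells with HUVEC endothelial cells and human mesenchymal stem cells. Paired agents were dosed in half-log steps down from about clinical Cmax, or from 10 microM where Cmax was unknown.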

[1] = second compound 0.0316 µM, first compound 0.0316 µM
[2] = second compound 0.0316 µM, first compound 0.1 µM
[3] = second compound 0.0316 µM, first compound 0.316 µM
[4] = second compound 0.0316 µM, first compound 1 µM
[5] = second compound 0.0316 µM, first compound 3.16 µM
[6] = second compound 0.0316 µM, first compound 10 µM
[7] = second compound 0.1 µM, first compound 0.0316 µM
[8] = second compound 0.1 µM, first compound 0.1 µM
[9] = second compound 0.1 µM, first compound 0.316 µM
[10] = second compound 0.1 µM, first compound 1 µM
[11] = second compound 0.1 µM, first compound 3.16 µM
[12] = second compound 0.1 µM, first compound 10 µM
[13] = second compound 0.316 µM, first compound 0.0316 µM
[14] = second compound 0.316 µM, first compound 0.1 µM
[15] = second compound 0.316 µM, first compound 0.316 µM
[16] = second compound 0.316 µM, first compound 1 µM
[17] = second compound 0.316 µM, first compound 3.16 µM
[18] = second compound 0.316 µM, first compound 10 µM
[19] = second compound 1 µM, first compound 0.0316 µM
[20] = second compound 1 µM, first compound 0.1 µM
[21] = second compound 1 µM, first compound 0.316 µM
[22] = second compound 1 µM, first compound 1 µM
[23] = second compound 1 µM, first compound 3.16 µM
[24] = second compound 1 µM, first compound 10 µM
[25] = second compound 3.16 µM, first compound 0.0316 µM
[26] = second compound 3.16 µM, first compound 0.1 µM
[27] = second compound 3.16 µM, first compound 0.316 µM
[28] = second compound 3.16 µM, first compound 1 µM
[29] = second compound 3.16 µM, first compound 3.16 µM
[30] = second compound 3.16 µM, first compound 10 µM
[31] = second compound 10 µM, first compound 0.0316 µM
[32] = second compound 10 µM, first compound 0.1 µM
[33] = second compound 10 µM, first compound 0.316 µM
[34] = second compound 10 µM, first compound 1 µM
[35] = second compound 10 µM, first compound 3.16 µM
[36] = second compound 10 µM, first compound 10 µM
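Also: spheroids exposed to agents for seven days before readout.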
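For viability, T/C in this document: 100% = DMSO vehicle control viability.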

Q: For `CC1(C)CCC(CN2CCN(c3ccc(C(=O)NS(=O)(=O)c4ccc(NCC5CCOCC5)c([N+](=O)[O-])c4)c(Oc4cnc5[nH]ccc5c4)c3)CC2)=C(c2ccc(Cl)cc2)C1` + CNC(=O)c1ccc(Nc2nc(OC3CCCC3)c3c(-c4ccc5nc(C)oc5c4)c[nH]c3n2)c(OC)c1, which IC50 (second compound 0.0316 µM) is on record?
A: > 10000 nM

Q: What about the IC50 (second compound 0.1 µM) of the same molecule?
A: > 10000 nM

Q: What about the IC50 (second compound 0.316 µM) of the same molecule?
A: > 10000 nM

Q: What about the IC50 (second compound 1 µM) of the same molecule?
A: > 10000 nM

Q: And the IC50 (second compound 3.16 µM)?
A: < 31.6 nM

Q: What about the IC50 (second compound 10 µM) of the same molecule?
A: 80.2 nM

Q: What about the viability, T/C [1] of the same molecule?
A: 124%

Q: And the viability, T/C [2]?
A: 102%

Q: What about the viability, T/C [3] of the same molecule?
A: 96.6%

Q: And the viability, T/C [4]?
A: 94.7%

Q: What about the viability, T/C [5] of the same molecule?
A: 111%

Q: What about the viability, T/C [6] of the same molecule?
A: 75.4%

Q: And the viability, T/C [7]?
A: 65.9%

Q: What about the viability, T/C [8] of the same molecule?
A: 55.9%

Q: What about the viability, T/C [9] of the same molecule?
A: 60.4%

Q: And the viability, T/C [10]?
A: 57.5%

Q: What about the viability, T/C [11] of the same molecule?
A: 60.4%

Q: And the viability, T/C [12]?
A: 63.4%

Q: What about the viability, T/C [13] of the same molecule?
A: 52.7%

Q: And the viability, T/C [14]?
A: 51.8%

Q: And the viability, T/C [15]?
A: 53.6%

Q: And the viability, T/C [16]?
A: 57.9%

Q: And the viability, T/C [17]?
A: 69.7%

Q: What about the viability, T/C [18] of the same molecule?
A: 51%

Q: What about the viability, T/C [19] of the same molecule?
A: 48.1%

Q: What about the viability, T/C [20] of the same molecule?
A: 51.4%

Q: What about the viability, T/C [21] of the same molecule?
A: 53.2%

Q: What about the viability, T/C [22] of the same molecule?
A: 59.6%

Q: And the viability, T/C [23]?
A: 49.4%

Q: What about the viability, T/C [24] of the same molecule?
A: 53.6%

Q: What about the viability, T/C [25] of the same molecule?
A: 46.1%

Q: And the viability, T/C [26]?
A: 48.4%

Q: What about the viability, T/C [27] of the same molecule?
A: 53.5%

Q: And the viability, T/C [28]?
A: 51.4%

Q: What about the viability, T/C [29] of the same molecule?
A: 45.8%

Q: What about the viability, T/C [30] of the same molecule?
A: 41.2%

Q: And the viability, T/C [31]?
A: 59.9%

Q: What about the viability, T/C [32] of the same molecule?
A: 48.7%

Q: And the viability, T/C [33]?
A: 41.1%

Q: What about the viability, T/C [34] of the same molecule?
A: 43.5%

Q: And the viability, T/C [35]?
A: 47.2%

Q: What about the viability, T/C [36] of the same molecule?
A: 38.6%

Q: Which results are given for `Nc1ccn(C2OC(CO)C(O)C2(F)F)c(=O)n1` (stereo unspecified) + CNC(=O)c1ccc(Nc2nc(OC3CCCC3)c3c(-c4ccc5nc(C)oc5c4)c[nH]c3n2)c(OC)c1?
A: IC50 (second compound 0.0316 µM): 200 nM; IC50 (second compound 0.1 µM): > 10000 nM; IC50 (second compound 0.316 µM): < 31.6 nM; IC50 (second compound 1 µM): < 31.6 nM; IC50 (second compound 3.16 µM): < 31.6 nM; IC50 (second compound 10 µM): < 31.6 nM; viability, T/C [1]: 65.9%; viability, T/C [2]: 51.8%; viability, T/C [3]: 50.4%; viability, T/C [4]: 40.7%; viability, T/C [5]: 50.8%; viability, T/C [6]: 51.8%; viability, T/C [7]: 53.1%; viability, T/C [8]: 52.3%; viability, T/C [9]: 49.5%; viability, T/C [10]: 43.9%; viability, T/C [11]: 57.2%; viability, T/C [12]: 49.3%; viability, T/C [13]: 49.9%; viability, T/C [14]: 50.3%; viability, T/C [15]: 50.5%; viability, T/C [16]: 40.6%; viability, T/C [17]: 47.3%; viability, T/C [18]: 51.8%; viability, T/C [19]: 43.2%; viability, T/C [20]: 47%; viability, T/C [21]: 42.1%; viability, T/C [22]: 35.8%; viability, T/C [23]: 32.8%; viability, T/C [24]: 45.6%; viability, T/C [25]: 45%; viability, T/C [26]: 43.6%; viability, T/C [27]: 38.2%; viability, T/C [28]: 33.5%; viability, T/C [29]: 50.3%; viability, T/C [30]: 39.5%; viability, T/C [31]: 49.3%; viability, T/C [32]: 46.1%; viability, T/C [33]: 39.5%; viability, T/C [34]: 31.3%; viability, T/C [35]: 36.6%; viability, T/C [36]: 39.8%

Q: Which results are given for `C#Cc1c(F)ccc2cc(O)cc(-c3ncc4c(N5CC6CCC(C5)N6)nc(OCC56CCCN5CC(F)C6)nc4c3F)c12` (stereo unspecified) + CN1CCN(c2cc(C(=O)Nc3cc4cc(-c5cnn(C)c5)ccc4cn3)ccn2)CC1?
A: IC50 (second compound 0.0316 µM): > 10000 nM; IC50 (second compound 0.1 µM): > 10000 nM; IC50 (second compound 0.316 µM): < 31.6 nM; IC50 (second compound 1 µM): < 31.6 nM; IC50 (second compound 3.16 µM): < 31.6 nM; IC50 (second compound 10 µM): < 31.6 nM; viability, T/C [1]: 80.5%; viability, T/C [2]: 100%; viability, T/C [3]: 88.8%; viability, T/C [4]: 92.9%; viability, T/C [5]: 84.8%; viability, T/C [6]: 96%; viability, T/C [7]: 56.6%; viability, T/C [8]: 61.1%; viability, T/C [9]: 64.8%; viability, T/C [10]: 63.3%; viability, T/C [11]: 57.1%; viability, T/C [12]: 44.9%; viability, T/C [13]: 32.3%; viability, T/C [14]: 33.5%; viability, T/C [15]: 34.9%; viability, T/C [16]: 42.4%; viability, T/C [17]: 37.6%; viability, T/C [18]: 29.9%; viability, T/C [19]: 7.93%; viability, T/C [20]: 5.94%; viability, T/C [21]: 7.93%; viability, T/C [22]: 8.03%; viability, T/C [23]: 5.77%; viability, T/C [24]: 5.01%; viability, T/C [25]: 9.44%; viability, T/C [26]: 7.11%; viability, T/C [27]: 5.82%; viability, T/C [28]: 5.27%; viability, T/C [29]: 5.66%; viability, T/C [30]: 7.7%; viability, T/C [31]: 5.72%; viability, T/C [32]: 3.17%; viability, T/C [33]: 2.28%; viability, T/C [34]: 4.25%; viability, T/C [35]: 5.23%; viability, T/C [36]: 1%

Reference: PubChem BioAssay AID2060611 (Molecular Pharmacology Branch, DTP, NCI, 2025)
